Among the data in patent US7745619B2, “Vinca derivatives” (priority 2003, dated 2010) are GI50 values, retold here.

Where two headings read alike, the source gives them in different places.

One experiment relates to MCF-7 cells. Description: MCF-7 GI50 determination (crystal violet growth inhibition). The following applies: Homo sapiens, MCF7, 96 h. The format is cell-based, human. As to the method: Growth inhibition (GI50) values were measured on the human breast carcinoma line, MCF-7. MCF-7 cells were plated at 2×10^4 cells/well in 96 well plates and grown for 24 hours in drug free media. On day 2, test compounds were added to the plates at 10-fold dilutions. Four days later, cells were fixed by the addition of glutaraldehyde to 0.75%. After 30 min, the fixed cells were extensively rinsed with distilled water and dried at room temperature for one hour. The cells were then stained with a 0.2% crystal violet solution for one hour at room temperature. Unbound stain was removed by ten rinses with tap water and plates were allowed to air dry for 30 min. The crystal violet was then solubilized by the addition of 10% acetic acid for 15 min and quantified by measuring absorbance at 570 nm on a Molecular Devices microplate reader. Growth inhibition was calculated according to the following equation: GI=[…], where the optical density (OD) of the test well after 4 days of treatment was T, the OD of the wells in the control plate on day 0 was T0. Plots of percent growth inhibition versus inhibitor concentration were used to determine the GI50.

The next experiment has as its system HeLa S-3 cells. As to the kind of experiment: HeLa GI50 determination (SRB growth inhibition). The format is cell-based, human. As to conditions: Homo sapiens, HeLa S3, 48 h. How it is done: Growth inhibition (GI50) values were measured on the human cervical carcinoma cell line, HeLa S-3, which were selected for growth on plastic. The HeLa cell assay was based on the description of Skehan et al., J. Natl. Cancer Inst., 82:1107-12 (1990), which is hereby incorporated by reference in its entirety. HeLa cells were plated at 2×10^4 cells/well in 96 well plates. One day later, a control plate was fixed by the addition of TCA to 5%. After five rinses with tap water, the plate was air-dried and stored at 4° C. Test compounds were added to the remaining plates at 10-fold dilutions. Two days later, all plates were fixed as described above. Cells were then stained by the addition of 100 μL per well of 0.4% sulforhodamine B (SRB) in 1% acetic acid for 30 min at 4° C. Wells were then quickly rinsed 5× with 1% acetic acid and allowed to air dry. The SRB was then solubilized by the addition of 100 μL per well of unbuffered 10 mM Tris base. Dye was quantified by measuring absorbance at 490 nm on a Molecular Devices microplate reader. Growth inhibition was calculated according to the following equation: GI=100×(T−T0)/(C−T0), where the optical density (OD) of the test well after 2 days of treatment was T, the OD of the wells in the control plate on day 0 was T0 and C was the OD of untreated wells. Plots of percent growth inhibition versus inhibitor concentration were used to determine the GI50.

The mark [1] stands for this setting: read-out: MCF-7 Cells GI50 (nM).
Setting [2] is: MCF-7 cells, 4 days of treatment, crystal violet, read-out: MCF-7 Cells GI50.
[3] abbreviates: HeLa S-3 cells, 2 days of treatment, sulforhodamine B, read-out: HeLa Cells GI50.

For the molecule `CC[C@]1(O)C[C@H]2CN(CCc3c([nH]c4ccc(/C=C/C#N)cc34)[C@@](C(=O)OC)(c3cc4c(cc3OC)N(C)[C@H]3[C@@](O)(C(=O)OC)[C@H](OC(C)=O)[C@]5(CC)C=CCN6CC[C@]43[C@@H]65)C2)C1` [Example 30, 12′-(2-cyanovinyl) vinblastine], the results for the concentration for 50% growth inhibition (GI50) with MCF-7 cells (setting [1]) and in the experiment on HeLa S-3 cells (read-out: HeLa Cells GI50 (nM)) were 45 nM and 65 nM, respectively.
Take `CC[C@]1(O)C[C@H]2CN(CCc3c([nH]c4ccc(/C=C/CNC(=O)OC(C)(C)C)cc34)[C@@](C(=O)OC)(c3cc4c(cc3OC)N(C)[C@H]3[C@@](O)(C(=O)OC)[C@H](OC(C)=O)[C@]5(CC)C=CCN6CC[C@]43[C@@H]65)C2)C1` [Example 31, 12′-(3-tert-butoxycarbonylaminopropenyl) vinblastine]: the 50% growth inhibitory concentration (GI50) worked out at 300 nM with MCF-7 cells (setting [1]) and 600 nM in the experiment with HeLa S-3 cells (read-out: HeLa Cells GI50 (nM)).
Turning to `CC[C@]1(O)C[C@H]2CN(CCc3c([nH]c4ccc(SCCCCO)cc34)[C@@](C(=O)OC)(c3cc4c(cc3OC)N(C)[C@H]3[C@@](O)(C(=O)OC)[C@H](OC(C)=O)[C@]5(CC)C=CCN6CC[C@]43[C@@H]65)C2)C1` [Example 32, 12′-(4-hydroxybutylsulfanyl)vinblastine], the concentration for 50% growth inhibition (GI50) in the experiment on MCF-7 cells (setting [1]) was determined as 30 nM; with HeLa S-3 cells (read-out: HeLa Cells GI50 (nM)), 35 nM.
`CC[C@]1(O)C[C@H]2CN(CCc3c([nH]c4ccc(SCCCO)cc34)[C@@](C(=O)OC)(c3cc4c(cc3OC)N(C)[C@H]3[C@@](O)(C(=O)OC)[C@H](OC(C)=O)[C@]5(CC)C=CCN6CC[C@]43[C@@H]65)C2)C1` [Example 33, 12′-(4-hydroxypropylsulfanyl)vinblastine]: the results for the GI50 in the experiment with MCF-7 cells (setting [2]) and in the experiment on HeLa S-3 cells (setting [3]) were 30 nM and 20 nM, respectively.
`CC[C@]1(O)C[C@H]2CN(CCc3c([nH]c4ccc(SCCO)cc34)[C@@](C(=O)OC)(c3cc4c(cc3OC)N(C)[C@H]3[C@@](O)(C(=O)OC)[C@H](OC(C)=O)[C@]5(CC)C=CCN6CC[C@]43[C@@H]65)C2)C1` [Example 35, 12′-(2-hydroxyethylsulfanyl)vinblastine]: the concentration for 50% growth inhibition (GI50) amounted to 60 nM in the experiment with MCF-7 cells (setting [2]) and 200 nM in the experiment on HeLa S-3 cells (setting [3]).
For the molecule `CC[C@]1(O)C[C@H]2CN(CCc3c([nH]c4ccc(SCc5ccc(OC)cc5)cc34)[C@@](C(=O)OC)(c3cc4c(cc3OC)N(C)[C@H]3[C@@](O)(C(=O)OC)[C@H](OC(C)=O)[C@]5(CC)C=CCN6CC[C@]43[C@@H]65)C2)C1` [Example 36, 12′-(4-methoxybenzylsulfanyl)vinblastine], the 50% growth inhibitory concentration (GI50) in the experiment with MCF-7 cells (setting [1]) is 50 nM; with HeLa S-3 cells (read-out: HeLa Cells GI50 (nM)) it was 30 nM.
For `CC[C@]1(O)C[C@H]2CN(CCc3c([nH]c4ccc(SCc5ccccc5F)cc34)[C@@](C(=O)OC)(c3cc4c(cc3OC)N(C=O)[C@H]3[C@@](O)(C(=O)OC)[C@H](OC(C)=O)[C@]5(CC)C=CCN6CC[C@]43[C@@H]65)C2)C1` [Example 38], in that order: 200 nM and 100 nM.
Regarding `CCCSc1ccc2[nH]c3c(c2c1)CCN1C[C@H](C[C@@](O)(CC)C1)C[C@]3(C(=O)OC)c1cc2c(cc1OC)N(C)[C@H]1[C@@](O)(C(=O)OC)[C@H](OC(C)=O)[C@]3(CC)C=CCN4CC[C@]21[C@@H]43` [Example 39, 12′-(propylsulfanyl) vinblastine], the 50% growth inhibitory concentration (GI50) with MCF-7 cells (setting [2]) and with HeLa S-3 cells (setting [3]) was 25 nM throughout.
Turning to `CCSc1ccc2[nH]c3c(c2c1)CCN1C[C@H](C[C@@](O)(CC)C1)C[C@]3(C(=O)OC)c1cc2c(cc1OC)N(C=O)[C@H]1[C@@](O)(C(=O)OC)[C@H](OC(C)=O)[C@]3(CC)C=CCN4CC[C@]21[C@@H]43` [Example 40, 12′-(ethylsulfanyl) vincristine], the GI50 worked out at 8 nM in the experiment with MCF-7 cells (setting [2]) and 6 nM in the experiment with HeLa S-3 cells (setting [3]).
Consider `CCSc1ccc2[nH]c3c(c2c1)CCN1C[C@H](C[C@@](O)(CC)C1)C[C@]3(C(=O)OC)c1cc2c(cc1OC)N(C)[C@H]1[C@@](O)(C(=O)OC)[C@H](OC(C)=O)[C@]3(CC)C=CCN4CC[C@]21[C@@H]43` [Example 41, 12′-(ethylsulfanyl) vinblastine], for which the GI50 is 3 nM in the experiment on MCF-7 cells (setting [2]) and 2 nM with HeLa S-3 cells (setting [3]).
For `CC[C@]1(O)C[C@H]2CN(CCc3c([nH]c4ccc(SC)cc34)[C@@](C(=O)OC)(c3cc4c(cc3OC)N(C=O)[C@H]3[C@@](O)(C(=O)OC)[C@H](OC(C)=O)[C@]5(CC)C=CCN6CC[C@]43[C@@H]65)C2)C1` [Example 42, 12′-(methylsulfanyl) vincristine], the 50% growth inhibitory concentration (GI50) in the experiment on MCF-7 cells (setting [2]) and with HeLa S-3 cells (setting [3]) was 3 nM throughout.
Take `CC[C@]1(O)C[C@H]2CN(CCc3c([nH]c4ccc(SC)cc34)[C@@](C(=O)OC)(c3cc4c(cc3OC)N(C)[C@H]3[C@@](O)(C(=O)OC)[C@H](OC(C)=O)[C@]5(CC)C=CCN6CC[C@]43[C@@H]65)C2)C1` [Example 43, 12′-(methylsulfanyl) vinblastine]: the figures for the concentration for 50% growth inhibition (GI50) with MCF-7 cells (setting [2]) and in the experiment with HeLa S-3 cells (setting [3]) were 2 nM and 0.6 nM, respectively.
In the case of `CC[C@]1(O)C[C@H]2CN(CCc3c([nH]c4ccc(SCC(=O)OC(C)(C)C)cc34)[C@@](C(=O)OC)(c3cc4c(cc3OC)N(C)[C@H]3[C@@](O)(C(=O)OC)[C@H](OC(C)=O)[C@]5(CC)C=CCN6CC[C@]43[C@@H]65)C2)C1` [Example 44, 12′-(tert-butoxycarbonylmethylsulfanyl) vinblastine], the results for the concentration for 50% growth inhibition (GI50) in the experiment with MCF-7 cells (setting [1]) and in the experiment on HeLa S-3 cells (read-out: HeLa Cells GI50 (nM)) were 100 nM and 70 nM, respectively.
For `CC[C@]1(O)C[C@H]2CN(CCc3c([nH]c4ccc(SCC(=O)O)cc34)[C@@](C(=O)OC)(c3cc4c(cc3OC)N(C)[C@H]3[C@@](O)(C(=O)OC)[C@H](OC(C)=O)[C@]5(CC)C=CCN6CC[C@]43[C@@H]65)C2)C1` [Example 45, 12′-(carboxymethylsulfanyl)vinblastine], the results for the GI50 with MCF-7 cells (setting [1]) and with HeLa S-3 cells (read-out: HeLa Cells GI50 (nM)) were 200 nM and 50 nM, respectively.
On to `CC[C@]1(O)C[C@H]2CN(CCc3c([nH]c4ccc(SCC(=O)NC)cc34)[C@@](C(=O)OC)(c3cc4c(cc3OC)N(C)[C@H]3[C@@](O)(C(=O)OC)[C@H](OC(C)=O)[C@]5(CC)C=CCN6CC[C@]43[C@@H]65)C2)C1` [Example 46, 12′-(methylaminocarbonylmethylsulfanyl)vinblastine], for which the GI50 turned out to be 500 nM with MCF-7 cells (setting [1]) and 200 nM in the experiment on HeLa S-3 cells (read-out: HeLa Cells GI50 (nM)).
For `CC[C@]1(O)C[C@H]2CN(CCc3c([nH]c4ccc(SCCC(=O)OC)cc34)[C@@](C(=O)OC)(c3cc4c(cc3OC)N(C=O)[C@H]3[C@@](O)(C(=O)OC)[C@H](OC(C)=O)[C@]5(CC)C=CCN6CC[C@]43[C@@H]65)C2)C1` [Example 47, 12′-(methoxycarbonylethylsulfanyl) vincristine], in that order: 40 nM and 20 nM.
In the case of `CC[C@]1(O)C[C@H]2CN(CCc3c([nH]c4ccc(SCCN(C)C)cc34)[C@@](C(=O)OC)(c3cc4c(cc3OC)N(C)[C@H]3[C@@](O)(C(=O)OC)[C@H](OC(C)=O)[C@]5(CC)C=CCN6CC[C@]43[C@@H]65)C2)C1` [Example 48, 12′-(2-(N,N-dimethylamino)ethylsulfanyl)vinblastine], the GI50 in the experiment on MCF-7 cells (setting [1]) was determined as 40 nM; in the experiment on HeLa S-3 cells (read-out: HeLa Cells GI50 (nM)), 30 nM.
For `CC[C@]1(O)C[C@H]2CN(CCc3c([nH]c4ccc(SCCCN5CCOCC5)cc34)[C@@](C(=O)OC)(c3cc4c(cc3OC)N(C)[C@H]3[C@@](O)(C(=O)OC)[C@H](OC(C)=O)[C@]5(CC)C=CCN6CC[C@]43[C@@H]65)C2)C1` [Example 49, 12′-(3-(morpholin-4-yl)propylsulfanyl) vinblastine] the same measures were 30 nM and 8 nM.
As to `CC[C@]1(O)C[C@H]2CN(CCc3c([nH]c4ccc(SCCCN5CCCCC5)cc34)[C@@](C(=O)OC)(c3cc4c(cc3OC)N(C)[C@H]3[C@@](O)(C(=O)OC)[C@H](OC(C)=O)[C@]5(CC)C=CCN6CC[C@]43[C@@H]65)C2)C1` [Example 50, 12′-(3-(piperidin-1-yl)propylsulfanyl) vinblastine], the GI50 turned out to be 40 nM with MCF-7 cells (setting [2]) and 20 nM in the experiment with HeLa S-3 cells (setting [3]).
For the molecule `CC[C@]1(O)C[C@H]2CN(CCc3c([nH]c4ccc(SCCNC(C)=O)cc34)[C@@](C(=O)OC)(c3cc4c(cc3OC)N(C)[C@H]3[C@@](O)(C(=O)OC)[C@H](OC(C)=O)[C@]5(CC)C=CCN6CC[C@]43[C@@H]65)C2)C1` [Example 52, 12′-(2-(acetylamino)ethylsulfanyl) vinblastine], the GI50 is 300 nM in the experiment on MCF-7 cells (setting [1]) and 200 nM in the experiment with HeLa S-3 cells (read-out: HeLa Cells GI50 (nM)).

As usually defined, the GI50 is the concentration that inhibits growth by half.
